Measurements published in patent US20230085307A1, “PYRIDAZINONE COMPOUND AND HERBICIDE” (NISSAN CHEMICAL CORPORATION, priority 2019, published 2023).

What follows are compounds tested on late watergrass (assay: Test Example 1: herbicidal activity, application before weed generation under submerged conditions (Table 16, symbol A)). Settings: 320 g/ha applied herbicide.
Assay type: in vivo, late watergrass (Echinochloa oryzicola)
Method in brief: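 Alluvial soil was flooded to 4 cm depth, weed seeds were sown mixed and 2.5-leaf rice seedlings were transplanted. On sowing day, the compound's emulsion, diluted in water to a set dose, was applied to the water surface. Plants grew at 25–30 °C and were scored 0–5 after three weeks.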

**Q.** For `Cc1nn(C)c(=O)c(-c2c(-c3ccc(OC(F)F)cc3)sc3ccc(F)cc23)c1OC(=O)C1CCCO1` (centres unmarked) [2-289], which “Herbicidal effect on A: late watergrass (grade 0-5)” value is on record?
**A.** 4 (Herbicidal rate of 70% or more and less than 90%)

**Q.** With `CCOC(=O)Oc1c(C)nn(C)c(=O)c1-c1c(-c2ccc(OC(F)F)cc2)sc2ccc(F)cc12` [2-292] as the compound, how does the “Herbicidal effect on A: late watergrass (grade 0-5)” value read?
**A.** 5 (Herbicidal rate of 90% or more (almost completely withered))

What follows are compounds tested on Italian ryegrass (assay: Test Example 4: herbicidal effect by soil treatment (Table 19, symbol K)). Settings: amount of applied herbicide 320 g/ha.
Assay type: in vivo, Italian ryegrass (Lolium multiflorum)
Method in brief: (§1)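 Step 1: sow seeds in sterilized diluvial soil, cover ~1.5 cm. Step 2: spray diluted emulsion onto soil surface at predetermined rate. Step 3: greenhouse, 25–30° C, three weeks. Step 4: grade effect on each plant by earlier criteria.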

**Q.** How did the “herbicidal effect on K: Italian ryegrass” value turn out when `Cc1nn(C)c(=O)c(-c2c(-c3ccc(OC(F)F)cc3)sc3ccc(F)cc23)c1OC(=O)C1CCCO1` (centres unmarked) [2-289] was run?
**A.** 5 (Herbicidal rate of 90% or more (almost completely withered))

**Q.** Which “herbicidal effect on K: Italian ryegrass” value does the source give for `CCOC(=O)Oc1c(C)nn(C)c(=O)c1-c1c(-c2ccc(OC(F)F)cc2)sc2ccc(F)cc12` [2-292] here?
**A.** 5 (Herbicidal rate of 90% or more (almost completely withered))

These compounds were tested on windgrass (assay: Test Example 4: herbicidal effect by soil treatment (Table 19, symbol L)). Settings: amount of applied herbicide 320 g/ha.
Assay type: in vivo, windgrass (Apera spica-venti)
Method in brief: as §1

**Q.** How did the “herbicidal effect on L: windgrass” value turn out when `Cc1nn(C)c(=O)c(-c2c(-c3ccc(OC(F)F)cc3)sc3ccc(F)cc23)c1OC(=O)C1CCCO1` (centres unmarked) [2-289] was run?
**A.** 4 (Herbicidal rate of 70% or more and less than 90%)

**Q.** `CCOC(=O)Oc1c(C)nn(C)c(=O)c1-c1c(-c2ccc(OC(F)F)cc2)sc2ccc(F)cc12` [2-292] was tested. Which “herbicidal effect on L: windgrass” value did it give?
**A.** 1 (Herbicidal rate of 5% or more and less than 20%)

Each compound was assayed on lambsquarters (assay: Test Example 4: herbicidal effect by soil treatment (Table 19, symbol O)). Settings: amount of applied herbicide 320 g/ha.
Assay type: in vivo, lambsquarters (Chenopodium album)
Method in brief: as §1

**Q.** For `Cc1nn(C)c(=O)c(-c2c(-c3ccc(OC(F)F)cc3)sc3ccc(F)cc23)c1OC(=O)C1CCCO1` (centres unmarked) [2-289], which “herbicidal effect on O: lambsquarters” value is on record?
**A.** 5 (Herbicidal rate of 90% or more (almost completely withered))

**Q.** How did the “herbicidal effect on O: lambsquarters” value turn out when `CCOC(=O)Oc1c(C)nn(C)c(=O)c1-c1c(-c2ccc(OC(F)F)cc2)sc2ccc(F)cc12` [2-292] was run?
**A.** 5 (Herbicidal rate of 90% or more (almost completely withered))

The compounds below were run on velvetleaf (assay: Test Example 4: herbicidal effect by soil treatment (Table 19, symbol M)). Settings: amount of applied herbicide 320 g/ha.
Assay type: in vivo, velvetleaf (Abutilon theophrasti)
Method in brief: as §1

**Q.** How did the “herbicidal effect on M: velvetleaf” value turn out when `Cc1nn(C)c(=O)c(-c2c(-c3ccc(OC(F)F)cc3)sc3ccc(F)cc23)c1OC(=O)C1CCCO1` (centres unmarked) [2-289] was run?
**A.** 5 (Herbicidal rate of 90% or more (almost completely withered))

**Q.** For `CCOC(=O)Oc1c(C)nn(C)c(=O)c1-c1c(-c2ccc(OC(F)F)cc2)sc2ccc(F)cc12` [2-292], which “herbicidal effect on M: velvetleaf” value is on record?
**A.** 3 (Herbicidal rate of 40% or more and less than 70%)

These compounds were tested on barnyard grass (assay: Test Example 3: herbicidal effect by foliage application, Wagner pot (Table 18, symbol H)). Settings: amount of applied herbicide 320 g/ha.
Assay type: in vivo, barnyard grass (Echinochloa crus-galli)
Method in brief: (§2)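 Plants were sown in alluvial soil held under 0.1–0.5 cm standing water and grown 14 days in a greenhouse at 25–30 °C. An emulsifiable formulation, water-diluted to the set dose, was then sprayed onto the foliage, and effects were scored three weeks later using previously defined criteria.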

**Q.** How did the “herbicidal effect on H: barnyard grass” value turn out when `Cc1nn(C)c(=O)c(-c2c(-c3ccc(OC(F)F)cc3)sc3ccc(F)cc23)c1OC(=O)C1CCCO1` (centres unmarked) [2-289] was run?
**A.** 5 (Herbicidal rate of 90% or more (almost completely withered))

**Q.** How did the “herbicidal effect on H: barnyard grass” value turn out when `CCOC(=O)Oc1c(C)nn(C)c(=O)c1-c1c(-c2ccc(OC(F)F)cc2)sc2ccc(F)cc12` [2-292] was run?
**A.** 5 (Herbicidal rate of 90% or more (almost completely withered))

The compounds below were run on blackgrass (assay: Test Example 5: herbicidal effect by foliage application, plastic box (Table 20, symbol J)). Settings: foliage application, AAH 320 g/ha, evaluated three weeks after application.
Assay type: in vivo, blackgrass (Alopecurus myosuroides)
Method in brief: (§3)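 Foliar spray test: emulsion formulation diluted in water to a set application rate, sprayed onto 14-day-old plants raised in diluvial soil at 25° C to 30° C under glass. Both herbicidal effect and crop effect rated visually three weeks later.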

**Q.** `Cc1nn(C)c(=O)c(-c2c(-c3ccc(OC(F)F)cc3)sc3ccc(F)cc23)c1OC(=O)C1CCCO1` (centres unmarked) [2-289] was tested. Which “J: blackgrass, herbicidal effect (criteria 0-5)” value did it give?
**A.** 4 (Herbicidal rate of 70% or more and less than 90%)

**Q.** How did the “J: blackgrass, herbicidal effect (criteria 0-5)” value turn out when `CCOC(=O)Oc1c(C)nn(C)c(=O)c1-c1c(-c2ccc(OC(F)F)cc2)sc2ccc(F)cc12` [2-292] was run?
**A.** 4 (Herbicidal rate of 70% or more and less than 90%)

Each compound was assayed on redroot pigweed (assay: Test Example 5: herbicidal effect by foliage application, plastic box (Table 20, symbol N)). Settings: foliage application, AAH 320 g/ha, evaluated three weeks after application.
Assay type: in vivo, redroot pigweed (Amaranthus retroflexus)
Method in brief: as §3

**Q.** How did the “N: redroot pigweed, herbicidal effect (criteria 0-5)” value turn out when `Cc1nn(C)c(=O)c(-c2c(-c3ccc(OC(F)F)cc3)sc3ccc(F)cc23)c1OC(=O)C1CCCO1` (centres unmarked) [2-289] was run?
**A.** 5 (Herbicidal rate of 90% or more (almost completely withered))

**Q.** `CCOC(=O)Oc1c(C)nn(C)c(=O)c1-c1c(-c2ccc(OC(F)F)cc2)sc2ccc(F)cc12` [2-292] was tested. Which “N: redroot pigweed, herbicidal effect (criteria 0-5)” value did it give?
**A.** 5 (Herbicidal rate of 90% or more (almost completely withered))

What follows are compounds tested on blackgrass (assay: Test Example 4: herbicidal effect by soil treatment (Table 19, symbol J)). Settings: amount of applied herbicide 320 g/ha.
Assay type: in vivo, blackgrass (Alopecurus myosuroides)
Method in brief: as §1

**Q.** For `Cc1nn(C)c(=O)c(-c2c(-c3ccc(OC(F)F)cc3)sc3ccc(F)cc23)c1OC(=O)C1CCCO1` (centres unmarked) [2-289], which “herbicidal effect on J: blackgrass” value is on record?
**A.** 5 (Herbicidal rate of 90% or more (almost completely withered))

**Q.** With `CCOC(=O)Oc1c(C)nn(C)c(=O)c1-c1c(-c2ccc(OC(F)F)cc2)sc2ccc(F)cc12` [2-292] as the compound, how does the “herbicidal effect on J: blackgrass” value read?
**A.** 3 (Herbicidal rate of 40% or more and less than 70%)

What follows are compounds tested on Italian ryegrass (assay: Test Example 5: herbicidal effect by foliage application, plastic box (Table 20, symbol K)). Settings: foliage application, AAH 320 g/ha, evaluated three weeks after application.
Assay type: in vivo, Italian ryegrass (Lolium multiflorum)
Method in brief: as §3

**Q.** Which “K: Italian ryegrass, herbicidal effect (criteria 0-5)” value does the source give for `Cc1nn(C)c(=O)c(-c2c(-c3ccc(OC(F)F)cc3)sc3ccc(F)cc23)c1OC(=O)C1CCCO1` (centres unmarked) [2-289] here?
**A.** 5 (Herbicidal rate of 90% or more (almost completely withered))

**Q.** With `CCOC(=O)Oc1c(C)nn(C)c(=O)c1-c1c(-c2ccc(OC(F)F)cc2)sc2ccc(F)cc12` [2-292] as the compound, how does the “K: Italian ryegrass, herbicidal effect (criteria 0-5)” value read?
**A.** 5 (Herbicidal rate of 90% or more (almost completely withered))

These compounds were tested on velvetleaf (assay: Test Example 5: herbicidal effect by foliage application, plastic box (Table 20, symbol M)). Settings: foliage application, AAH 320 g/ha, evaluated three weeks after application.
Assay type: in vivo, velvetleaf (Abutilon theophrasti)
Method in brief: as §3

**Q.** With `Cc1nn(C)c(=O)c(-c2c(-c3ccc(OC(F)F)cc3)sc3ccc(F)cc23)c1OC(=O)C1CCCO1` (centres unmarked) [2-289] as the compound, how does the “M: velvetleaf, herbicidal effect (criteria 0-5)” value read?
**A.** 5 (Herbicidal rate of 90% or more (almost completely withered))

**Q.** How did the “M: velvetleaf, herbicidal effect (criteria 0-5)” value turn out when `CCOC(=O)Oc1c(C)nn(C)c(=O)c1-c1c(-c2ccc(OC(F)F)cc2)sc2ccc(F)cc12` [2-292] was run?
**A.** 5 (Herbicidal rate of 90% or more (almost completely withered))

What follows are compounds tested on persian speedwell (assay: Test Example 4: herbicidal effect by soil treatment (Table 19, symbol R)). Settings: amount of applied herbicide 320 g/ha.
Assay type: in vivo, Persian speedwell (Veronica persica)
Method in brief: as §1

**Q.** How did the “herbicidal effect on R: persian speedwell” value turn out when `Cc1nn(C)c(=O)c(-c2c(-c3ccc(OC(F)F)cc3)sc3ccc(F)cc23)c1OC(=O)C1CCCO1` (centres unmarked) [2-289] was run?
**A.** 5 (Herbicidal rate of 90% or more (almost completely withered))

**Q.** `CCOC(=O)Oc1c(C)nn(C)c(=O)c1-c1c(-c2ccc(OC(F)F)cc2)sc2ccc(F)cc12` [2-292] was tested. Which “herbicidal effect on R: persian speedwell” value did it give?
**A.** 5 (Herbicidal rate of 90% or more (almost completely withered))

Each compound was assayed on late watergrass (assay: Test Example 2: herbicidal activity, application during weed generation under submerged conditions (Table 17, symbol A)). Settings: AAH 320 g/ha; application during weed generation, submerged conditions.
Assay type: in vivo, late watergrass (Echinochloa oryzicola)
Method in brief: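 Effect on each weed is rated three weeks post-treatment, using the same scoring criteria as the preceding test. Plants grow from mixed-sown seed in flooded alluvial soil (4 cm water) at 25° C. to 30° C., and are treated at one to two leaves with diluted emulsion dropped onto the water.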

**Q.** For `Cc1nn(C)c(=O)c(-c2c(-c3ccc(OC(F)F)cc3)sc3ccc(F)cc23)c1OC(=O)C1CCCO1` (centres unmarked) [2-289], which “herbicidal effect rating, A: late watergrass” value is on record?
**A.** 3 (Herbicidal rate of 40% or more and less than 70%)

**Q.** For `CCOC(=O)Oc1c(C)nn(C)c(=O)c1-c1c(-c2ccc(OC(F)F)cc2)sc2ccc(F)cc12` [2-292], which “herbicidal effect rating, A: late watergrass” value is on record?
**A.** 5 (Herbicidal rate of 90% or more (almost completely withered))

The compounds below were run on Chinese sprangletop (assay: Test Example 3: herbicidal effect by foliage application, Wagner pot (Table 18, symbol D)). Settings: amount of applied herbicide 320 g/ha.
Assay type: in vivo, chinese sprangletop (Leptochloa chinensis)
Method in brief: as §2

**Q.** How did the “herbicidal effect on D: Chinese sprangletop” value turn out when `Cc1nn(C)c(=O)c(-c2c(-c3ccc(OC(F)F)cc3)sc3ccc(F)cc23)c1OC(=O)C1CCCO1` (centres unmarked) [2-289] was run?
**A.** 3 (Herbicidal rate of 40% or more and less than 70%)

**Q.** `CCOC(=O)Oc1c(C)nn(C)c(=O)c1-c1c(-c2ccc(OC(F)F)cc2)sc2ccc(F)cc12` [2-292] was tested. Which “herbicidal effect on D: Chinese sprangletop” value did it give?
**A.** 4 (Herbicidal rate of 70% or more and less than 90%)

Each compound was assayed on lambsquarters (assay: Test Example 5: herbicidal effect by foliage application, plastic box (Table 20, symbol O)). Settings: foliage application, AAH 320 g/ha, evaluated three weeks after application.
Assay type: in vivo, lambsquarters (Chenopodium album)
Method in brief: as §3

**Q.** How did the “O: lambsquarters, herbicidal effect (criteria 0-5)” value turn out when `Cc1nn(C)c(=O)c(-c2c(-c3ccc(OC(F)F)cc3)sc3ccc(F)cc23)c1OC(=O)C1CCCO1` (centres unmarked) [2-289] was run?
**A.** 5 (Herbicidal rate of 90% or more (almost completely withered))

**Q.** How did the “O: lambsquarters, herbicidal effect (criteria 0-5)” value turn out when `CCOC(=O)Oc1c(C)nn(C)c(=O)c1-c1c(-c2ccc(OC(F)F)cc2)sc2ccc(F)cc12` [2-292] was run?
**A.** 5 (Herbicidal rate of 90% or more (almost completely withered))

These compounds were tested on southern crabgrass (assay: Test Example 4: herbicidal effect by soil treatment (Table 19, symbol F)). Settings: amount of applied herbicide 320 g/ha.
Assay type: in vivo, southern crabgrass (Digitaria ciliaris)
Method in brief: as §1

**Q.** With `Cc1nn(C)c(=O)c(-c2c(-c3ccc(OC(F)F)cc3)sc3ccc(F)cc23)c1OC(=O)C1CCCO1` (centres unmarked) [2-289] as the compound, how does the “herbicidal effect on F: southern crabgrass” value read?
**A.** 5 (Herbicidal rate of 90% or more (almost completely withered))

**Q.** For `CCOC(=O)Oc1c(C)nn(C)c(=O)c1-c1c(-c2ccc(OC(F)F)cc2)sc2ccc(F)cc12` [2-292], which “herbicidal effect on F: southern crabgrass” value is on record?
**A.** 3 (Herbicidal rate of 40% or more and less than 70%)
